Experimental data taken from publication PMC12630292 (Journal of Neural Transmission, 2025).
Where two headings read alike, the source gives them in different places.

How the values were obtained:
D3 receptor = D3 receptor (Homo sapiens, UniProt P35462); test: cell-based; settings: read-out: Emax relative to dopamine, β-arrestin assay D3
D4 receptor = D4 receptor (Homo sapiens, UniProt P21917); test: cell-based; settings: read-out: Emax relative to dopamine, β-arrestin assay D4
D1 receptor [1] = target: T1, D1 receptor (Homo sapiens, UniProt P21728); test: cell-based; settings: read-out: Emax relative to dopamine, internalization assay D1
5HT2A = settings: ref Millan et al. [2002]; Newman-Tancredi et al. [2002]; cited from earlier work
D2L receptor = D2L receptor (Homo sapiens, UniProt P14416); test: cell-based; settings: read-out: Emax relative to dopamine, β-arrestin assay D2L
D1 receptor [2] = target: T1, D1 receptor; test: cell-based; settings: read-out: Emax relative to dopamine, β-arrestin assay D1
D2S receptor = D2S receptor (Homo sapiens, UniProt P14416); test: cell-based; settings: read-out: Emax relative to dopamine, β-arrestin assay D2S

- Emax (D3 receptor): 89%
- Emax (D4 receptor): 52%
- Emax (D1 receptor [1]): 38%
- Emax (D2L receptor): 83%
- Emax (D1 receptor [2]): 28%
- Emax (D2S receptor): 90%
SMILES: CN1CCc2cccc3c2[C@H]1Cc1ccc(O)c(O)c1-3 [Apomorphine]
- 5HT2A antagonist actions (5HT2A): weak
